Source: patent publication US20250197372A1 (priority 2020, published 2025)

Experiments:
Format in all cases: biochemical
[1] = target: recombinant human GAA (acid alpha-glucosidase) (Homo sapiens, UniProt P10253); assay: Acid alpha-glucosidase (GAA) assay (4-methylumbelliferyl-alpha-D-pyranoside substrate, fluorescence)
How it was run: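 Recombinant human enzyme preincubated 60 min at 37 °C with compound dilutions, then 4-methylumbelliferyl-alpha-D-pyranoside substrate added for 20 min at 37 °C. Stopped with glycine/NaOH pH 10; methylumbelliferone fluorescence (ex 365, em 440 nm) versus untreated enzyme; IC50 by 4-PL fit.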

[2] = target: rat maltase (partially purified alpha-glucosidase from intestinal rat powder); assay: Intestinal alpha-glucosidase assay, maltose substrate (Glucose GO Kit)
How it was run: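 Enzyme from intestinal rat powder, partially purified, is exposed to compound for 60 min at 37 °C. Disaccharide substrate (maltose or sucrose respectively) then reacts 30 min at 37 °C. Heat-stopped samples are assayed for glucose, and percent inhibition versus concentration gives IC50 via 4-PL.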

[3] = target: T1, recombinant alpha-glucosidase II (murine full-length glucosidase II, alpha and beta subunits, Glu 2) (Mus musculus, UniProt Q8BHN3); assay: Alpha-glucosidase II assay (4-methylumbelliferyl-alpha-D-pyranoside substrate, fluorescence); conditions: Glucosidase 2; read-out: Glu2 IC50
T1 construct: made in house; host or cells: HEK-293T cells transduced with BacMam viruses (75% alpha, 25% beta); protein harvested from culture supernatant
T1 sequence (O08795 15-521): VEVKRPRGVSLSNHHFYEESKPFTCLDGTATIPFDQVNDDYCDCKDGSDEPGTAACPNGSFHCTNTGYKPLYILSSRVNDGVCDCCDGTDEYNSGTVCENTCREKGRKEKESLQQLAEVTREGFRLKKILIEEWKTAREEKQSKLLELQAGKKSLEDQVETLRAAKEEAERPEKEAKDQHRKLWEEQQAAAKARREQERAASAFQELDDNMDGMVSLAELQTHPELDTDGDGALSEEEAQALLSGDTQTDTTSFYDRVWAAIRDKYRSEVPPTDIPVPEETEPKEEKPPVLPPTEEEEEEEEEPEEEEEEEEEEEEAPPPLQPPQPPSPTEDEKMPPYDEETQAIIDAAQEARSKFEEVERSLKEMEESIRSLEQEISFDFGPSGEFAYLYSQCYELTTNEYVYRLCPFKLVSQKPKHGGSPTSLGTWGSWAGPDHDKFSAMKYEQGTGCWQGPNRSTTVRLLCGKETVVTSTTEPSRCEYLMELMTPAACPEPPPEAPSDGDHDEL
T1 sequence (Q8BHN3 33-944): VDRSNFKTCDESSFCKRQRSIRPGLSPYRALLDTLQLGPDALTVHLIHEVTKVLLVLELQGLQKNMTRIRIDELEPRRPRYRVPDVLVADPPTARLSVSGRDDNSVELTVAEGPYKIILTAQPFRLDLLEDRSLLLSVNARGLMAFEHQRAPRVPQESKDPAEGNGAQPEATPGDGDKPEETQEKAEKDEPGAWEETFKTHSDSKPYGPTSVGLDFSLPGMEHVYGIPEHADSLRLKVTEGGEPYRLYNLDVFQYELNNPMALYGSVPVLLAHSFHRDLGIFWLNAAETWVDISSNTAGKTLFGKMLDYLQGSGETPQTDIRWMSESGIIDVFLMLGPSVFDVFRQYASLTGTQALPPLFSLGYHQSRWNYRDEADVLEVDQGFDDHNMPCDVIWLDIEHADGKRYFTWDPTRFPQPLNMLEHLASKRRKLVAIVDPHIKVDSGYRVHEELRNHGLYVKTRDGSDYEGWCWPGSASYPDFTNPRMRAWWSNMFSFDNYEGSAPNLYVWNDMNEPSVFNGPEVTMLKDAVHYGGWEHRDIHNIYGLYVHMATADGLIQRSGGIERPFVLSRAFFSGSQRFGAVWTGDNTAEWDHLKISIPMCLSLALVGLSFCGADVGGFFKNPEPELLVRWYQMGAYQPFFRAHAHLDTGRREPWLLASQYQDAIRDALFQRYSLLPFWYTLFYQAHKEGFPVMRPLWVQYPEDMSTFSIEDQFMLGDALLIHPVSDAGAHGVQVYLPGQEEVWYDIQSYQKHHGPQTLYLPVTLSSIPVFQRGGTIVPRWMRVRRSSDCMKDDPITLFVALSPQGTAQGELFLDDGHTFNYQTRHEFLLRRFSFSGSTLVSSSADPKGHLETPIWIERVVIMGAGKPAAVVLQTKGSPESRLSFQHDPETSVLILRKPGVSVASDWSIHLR

Row | SMILES | IC50 [1] [nM] | IC50 [2] [nM] | IC50 [3] [nM]
1 | CN(C)Cc1ccc(NCCCCCCN2C[C@H](O)[C@@H](O)[C@H](O)[C@H]2CO)c(F)c1 [Compound 1236, (2R,3R,4R,5S)-1-[6-({4-[(dimethylamino)methyl]-2-fluorophenyl}amino)hexyl]-2-(hydroxymethyl)piperidine-3,4,5-triol] | 556 | 36 | 39
2 | CS(=O)(=O)c1cc(NCc2cccc(CN3C[C@H](O)[C@@H](O)[C@H](O)[C@H]3CO)c2)cc(N2CCOCC2)c1 [Compound 1036, (2R,3R,4R,5S)-2-(hydroxymethyl)-1-{[3-({[3-methanesulfonyl-5-(morpholin-4-yl)phenyl]amino}methyl)phenyl]methyl}piperidine-3,4,5-triol] | 2760 | 77 | 49500
3 | OC[C@@H]1[C@@H](O)[C@H](O)[C@@H](O)CN1CCCCCCNc1ccc(-c2ncccn2)cc1F [Compound 1229, (2R,3R,4R,5S)-1-(6-{[2-fluoro-4-(pyrimidin-2-yl)phenyl]amino}hexyl)-2-(hydroxymethyl)piperidine-3,4,5-triol] | 81 | 24 | 37
4 | N#Cc1cc(Br)cc(NCc2cccc(CN3C[C@H](O)[C@@H](O)[C@H](O)[C@H]3CO)c2)c1 [Compound 1023, 3-bromo-5-{[(3-{[(2R,3R,4R,5S)-3,4,5-trihydroxy-2-(hydroxymethyl)piperidin-1-yl]methyl}phenyl)methyl]amino}benzonitrile] | 1440 | 30 | 42600
5 | [N-]=[N+]=Nc1ccc(NCCNS(=O)(=O)NCCN2C[C@H](O)[C@@H](O)[C@H](O)[C@H]2CO)c([N+](=O)[O-])c1 [Compound 1275, (2R,3R,4R,5S)-1-{2-[({2-[(4-azido-2-nitrophenyl)amino]ethyl}sulfamoyl)amino]ethyl}-2-(hydroxymethyl)piperidine-3,4,5-triol] | 556 | 288 | 366
6 | Cc1cc(NCc2ccc(CN3C[C@H](O)[C@@H](O)[C@H](O)[C@H]3CO)cc2)cc(-c2ccco2)c1 [Compound 1317, (2R,3R,4R,5S)-1-{[4-({[3-(furan-2-yl)-5-methylphenyl]amino}methyl)phenyl]methyl}-2-(hydroxymethyl)piperidine-3,4,5-triol] | 480 | < 1 | 1200
7 | [N-]=[N+]=Nc1ccc(NCCOC(=O)NCCN2C[C@H](O)[C@@H](O)[C@H](O)[C@H]2CO)c([N+](=O)[O-])c1 [Compound 1268, 2-[(4-azido-2-nitrophenyl)amino]ethyl N-{2-[(2R,3R,4R,5S)-3,4,5-trihydroxy-2-(hydroxymethyl)piperidin-1-yl]ethyl}carbamate] | 617 | 68 | 32
8 | OC[C@@H]1[C@@H](O)[C@H](O)[C@@H](O)CN1Cc1cccc(CNc2ccc(Br)cc2)c1 [Compound 1027, (2R,3R,4R,5S)-1-[(3-{[(4-bromophenyl)amino]methyl}phenyl)methyl]-2-(hydroxymethyl)piperidine-3,4,5-triol] | 2830 | 81 | 23600
9 | N#Cc1cc(-c2ncccn2)ccc1NCCCCCCN1C[C@H](O)[C@@H](O)[C@H](O)[C@H]1CO [Compound 1256, 5-(pyrimidin-2-yl)-2-({6-[(2R,3R,4R,5S)-3,4,5-trihydroxy-2-(hydroxymethyl)piperidin-1-yl]hexyl}amino)benzonitrile] | 33 | 10 | 6
10 | COc1ccc(-c2ccc(CCCN3C[C@H](O)[C@@H](O)[C@H](O)[C@H]3CO)cc2)cc1 [Compound 1305, (2R,3R,4R,5S)-2-(hydroxymethyl)-1-(3-{4′-methoxy-[1,1′-biphenyl]-4-yl}propyl)piperidine-3,4,5-triol] | 498 | < 10 | < 1
11 | [N-]=[N+]=Nc1ccc(NCCc2ccccc2CCN2C[C@H](O)[C@@H](O)[C@H](O)[C@H]2CO)c([N+](=O)[O-])c1 [Compound 1249] | 1920 | 3490 | 162
12 | O=[N+]([O-])c1cc(Br)ccc1NCc1ccc(CN2C[C@H](O)[C@@H](O)[C@H](O)[C@H]2CO)cc1 [Compound 1030, (2R,3R,4R,5S)-1-[(4-{[(4-bromo-2-nitrophenyl)amino]methyl}phenyl)methyl]-2-(hydroxymethyl)piperidine-3,4,5-triol] | 135 | < 1 | < 1
13 | Cc1cc(NCc2ccc(CN3C[C@H](O)[C@@H](O)[C@H](O)[C@H]3CO)cc2)cc(-n2nccn2)c1 [Compound 1316, (2R,3R,4R,5S)-2-(hydroxymethyl)-1-{[4-({[3-methyl-5-(2H-1,2,3-triazol-2-yl)phenyl]amino}methyl)phenyl]methyl}piperidine-3,4,5-triol] | 94 | 6 | 194
14 | CN(C)Cc1ccc(NCCCCCCN2C[C@H](O)[C@@H](O)[C@H](O)[C@H]2CO)c(C#N)c1 [Compound 1257, 5-[(dimethylamino)methyl]-2-({6-[(2R,3R,4R,5S)-3,4,5-trihydroxy-2-(hydroxymethyl)piperidin-1-yl]hexyl}amino)benzonitrile] | 73 | 8 | 19
15 | NC(=O)CCN(CCNc1ccc(-c2ncccn2)cc1[N+](=O)[O-])CCN1C[C@H](O)[C@@H](O)[C@H](O)[C@H]1CO [Compound 1226, 3-[(2-{[2-nitro-4-(pyrimidin-2-yl)phenyl]amino}ethyl)({2-[(2R,3R,4R,5S)-3,4,5-trihydroxy-2-(hydroxymethyl)piperidin-1-yl]ethyl})amino]propanamide] | 20900 | 4630 | 1350
16 | [N-]=[N+]=Nc1ccc(NCCN2CCN(CCN3C[C@H](O)[C@@H](O)[C@H](O)[C@H]3CO)CC2)c([N+](=O)[O-])c1 [Compound 1273, (2R,3R,4R,5S)-1-[2-(4-{2-[(4-azido-2-nitrophenyl)amino]ethyl}piperazin-1-yl)ethyl]-2-(hydroxymethyl)piperidine-3,4,5-triol] | 15600 | 646 | 548
17 | O=[N+]([O-])c1cc(Br)ccc1NCc1cccc(CN2C[C@H](O)[C@@H](O)[C@H](O)[C@H]2CO)c1 [Compound 1029, (2R,3R,4R,5S)-1-[(3-{[(4-bromo-2-nitrophenyl)-amino]methyl}phenyl)methyl]-2-(hydroxymethyl)piperidine-3,4,5-triol] | 1330 | 10 | 20400
18 | COc1ccc(-c2ccc(CN3C[C@H](O)[C@@H](O)[C@H](O)[C@H]3CO)cc2)cc1 [Compound 1306, (2R,3R,4R,5S)-2-(hydroxymethyl)-1-({4′-methoxy-[1,1′-biphenyl]-4-yl}methyl)piperidine-3,4,5-triol] | 4570 | < 10 | 44000
19 | COc1cc(-c2ncccn2)ccc1NCCCCCCN1C[C@H](O)[C@@H](O)[C@H](O)[C@H]1CO [Compound 1231, (2R,3R,4R,5S)-2-(hydroxymethyl)-1-(6-{[2-methoxy-4-(pyrimidin-2-yl)phenyl]amino}hexyl)piperidine-3,4,5-triol] | 91 | 30 | 30
20 | OC[C@@H]1[C@@H](O)[C@H](O)[C@@H](O)CN1Cc1cccc(CNc2cc(-c3ncccn3)cc(C3CC3)c2)n1 [Compound 1333, (2R,3R,4R,5S)-1-{[6-({[3-cyclopropyl-5-(pyrimidin-2-yl)phenyl]amino}methyl)pyridin-2-yl]methyl}-2-(hydroxymethyl)piperidine-3,4,5-triol] | 2180 | 846 | > 100000
21 | CS(=O)(=O)c1cc(Br)cc(NCc2ccc(CN3C[C@H](O)[C@@H](O)[C@H](O)[C@H]3CO)cc2)c1 [Compound 1025, (2R,3R,4R,5S)-1-[(4-{[(3-bromo-5-methanesulfonylphenyl)amino]methyl}phenyl)methyl]-2-(hydroxymethyl)piperidine-3,4,5-triol] | 135 | 4 | 229
22 | OC[C@@H]1[C@@H](O)[C@H](O)[C@@H](O)CN1CCCCCCNc1ccc(-c2ncccn2)cc1Cl [Compound 1228, (2R,3R,4R,5S)-1-(6-{[2-chloro-4-(pyrimidin-2-yl)phenyl]amino}hexyl)-2-(hydroxymethyl)piperidine-3,4,5-triol] | 68 | 1 | 11
23 | N#Cc1ccc(NCCCCCCN2C[C@H](O)[C@@H](O)[C@H](O)[C@H]2CO)c([N+](=O)[O-])c1 [Compound 1304, 3-nitro-4-({6-[(2R,3R,4R,5S)-3,4,5-trihydroxy-2-(hydroxymethyl)piperidin-1-yl]hexyl}amino)benzonitrile] | 43 | 17 | 22
24 | Cc1cc(NCc2ccc(CN3C[C@H](O)[C@@H](O)[C@H](O)[C@H]3CO)cc2)cc(-n2ccnn2)c1 [Compound 1323, (2R,3R,4R,5S)-2-(hydroxymethyl)-1-{[4-({[3-methyl-5-(1H-1,2,3-triazol-1-yl)phenyl]amino}methyl)phenyl]methyl}piperidine-3,4,5-triol] | 76 | 11 | 382
25 | Cc1cc(NCc2cccc(CN3C[C@H](O)[C@@H](O)[C@H](O)[C@H]3CO)n2)cc(-c2ncccn2)c1 [Compound 1322, (2R,3R,4R,5S)-2-(hydroxymethyl)-1-{[6-({[3-methyl-5-(pyrimidin-2-yl)phenyl]amino}methyl)pyridin-2-yl]methyl}piperidine-3,4,5-triol] | 1110 | 388 | 32400
